The values below come from publication PMC3003687, “α-Galactosylceramide Analogs with Weak Agonist Activity for Human iNKT Cells Define New Candidate Anti-Inflammatory Agents” (PLoS ONE, 2010).

Structures are written as SMILES.

One assay has as its system human iNKT cell clones. The experiment in a line: Cytokine ELISA of human iNKT cell clones stimulated with glycolipid-pulsed CD1d-transfected HeLa cells. It is filed as cell-based. Particulars: for EC50: Homo sapiens, iNKT, HDD3 clone, IL-4 levels did not reach a plateau. As to the method: Capture ELISA assays were used for measurement of cytokine responses of human iNKT cells to αGalCer analogs. One day prior to the experiment, CD1d transfected HeLa cells were plated at 25×10^3 cells/well in 100 µL of medium in flat-bottom 96 well plates. Glycolipids were then added in 100 µL of medium to give final concentrations ranging from 0.05 to 10^4 nM. The APCs were incubated for approximately 18 hours with the glycolipids and then irradiated (10,000 Rad) and washed twice with PBS prior to addition of 25×10^3 iNKT cells well in 300 µL. Supernatants were harvested after 24 hours of co-culture and stored frozen at -20°C. After thawing, aliquots of the supernatants were assayed for specific cytokines by ELISA using capture and biotin-labeled detection antibody pairs specific for GM-CSF, IL-2, IL-4, IL-12p70 and IL-13 (all obtained from BD Biosciences), IFNγ (Thermo-Scientific) or IL-18 (MBL). Specific signals were developed using HRP- conjugated streptavidin (BD Biosciences) and Turbo TMB substrate (Thermo-Scientific). Supernatants were tested pure and/or diluted to give values within a quantitative linear standard curve generated with recombinant cytokines. Curves of dose-dependent cytokine responses and graphs were plotted using the Graphpad Prism Software. EC50 values were calculated using the function log (agonist) response with variable slope, and statistical analyses were carried out using the same software. To calculate concentration-dependent cytokine ratios, IL-4/IFNγ and IL-13/IFNγ ratios were calculated using cytokine values from which background levels (i.e. levels in cultures receiving DMSO vehicle alone) were subtracted. Ratios were calculated by dividing IL-4 or IL-13 concentrations in pg/mL by IFNγ concentration in ng/mL.
For orientation: An ELISA detects its analyte on a solid surface through an enzyme-linked reagent.

For a further assay, the target named is T1, hCD1d (Homo sapiens, UniProt P15813).
T1 construct: we generated soluble and fluorescent tetrameric hCD1d molecules loaded with each of the glycolipid analogs; made in house
Description: Loading of hCD1d tetramers with variable glycolipid to CD1d ratios. It is filed as binding. Particulars: for lipid excess at which tetramers were efficiently loaded: 20 nM tetramers, 25 to 1000 fold molar excess of glycolipid to hCD1d, HDD3 clone. The text has this:
To characterize in more detail the iNKT cell TCR recognition of αGalCer analogs presented by human CD1d, we generated soluble and fluorescent tetrameric hCD1d molecules loaded with each of the glycolipid analogs. […] This was similar to the previously reported failure of mouse CD1d tetramer loaded with lysosulfatide to bind detectably to murine non-invariant and sulfatide specific NKT cells, despite a clear reactivity to this lipid upon presentation by APCs; [40]. […] To quantitate their binding avidities to iNKT cell TCRs, we used titration of analog-loaded hCD1d tetramers to determine equilibrium dissociation constants (KD), which are inversely proportional to avidity (Figure 3A and 3B).
Figure 3 Characterization of human iNKT cell TCR interactions with analog-loaded tetramers. (A) iNKT cell clones were stained with titrated amounts of hCD1d tetramers loaded with the indicated glycolipids (abbreviations as in legend to Figure 1), and the measured MFI values are plotted for selected glycolipids. (B) The equilibrium dissociation constants (KD, inversely proportional to TCR avidity) were determined as the concentrations of tetramers required to yield 50% of maximal binding. Data shown were obtained using the CD4^+ iNKT cell clone HDD3, and similar results (not shown) were obtained with a second CD4^+ clone (HDD11) and a CD4^−8^− double negative iNKT cell clone (HDE3). (C) Analysis of iNKT cell clones labeled with 20 nM of hCD1d tetramers which were loaded with variable excesses of analog to constant hCD1d (25 to 1000 fold molar excess of glycolipid to hCD1d protein). The measured MFI values were normalized as the percent of the maximum staining intensity obtained with each analog loaded tetramer. Data presented were generated with HDD3 (CD4+) iNKT cell clone, and similar results (not shown) were obtained with HDE3 (DN) clone.

Assay [1] relates to human iNKT cells and NK cells. Description: In vitro transactivation assay (CFSE-labeled iNKT cells co-cultured with PBMC). It is filed as cell-based. Particulars: 24 h; for IL-12 levels in supernatants / IL-13 levels in supernatants / IL-18 levels in supernatants / global IFNγ production in supernatants / ability to activate iNKT cells and stimulate NK cell transactivation (IFNγ+ cells): 100 nM; for IL-12 levels in supernatants / IL-13 levels in supernatants / IL-18 levels in supernatants / global IFNγ production in supernatants: ELISA; for ability to activate iNKT cells and stimulate NK cell transactivation (IFNγ+ cells): iNKT/PBMC 1/10, compared with KRN7000. How it is done:
iNKT cells were stained for 5 minutes with 1–20 µM of CFSE (Molecular probes) and 5% FCS in PBS and washed twice. As a positive control, a fraction of CFSE-labeled iNKT cells were preactivated for 30 minutes with 1 µg/mL of PMA and 250 ng/mL of Ionomycin (Sigma-Aldrich) in culture medium and extensively washed. The experiment was initiated by adding CFSE-labeled unstimulated or PMA/Ionomycin-preactivated iNKT cells to freshly prepared PBMC pulsed with vehicle or αGalCer analogs at the indicated concentrations and at an iNKT/PBMC ratio of 1/10 or 1/40. Supernatants and cells were harvested from parallel conditions after the indicated time of co-culture. For intracellular cytokine staining, brefeldin A (Golgiplug, BD Biosciences) was added 4 h before harvesting the cells, which were fixed with 1% paraformaldehyde and permeabilized with 0.1% saponin (Sigma-Aldrich) prior to mAb staining. Experiments with blocking antibodies were performed with 10 µg/mL of preservative-free mAbs, including isotype matched control, anti-IL-2, anti-IL-12, anti-IFNγ and anti-CD40L (all from BD Biosciences) or anti-IL-18 (MBL). For detection of CD40L expression by iNKT cells, co-cultures of iNKT and PBMC were prepared as above, except that monensin (Golgistop, BD Biosciences) and fluorescent CD40L specific mAb (1/10 or 1/20 final dilution) were added at the beginning of the experiment, as previously described.
Figure 6 A novel in vitro “transactivation assay” to assess the ability of human iNKT cells to activate other leukocytes. (A) Format for analysis of transactivation of bystander leukocytes. Flow cytometric analysis was carried out for culture containing iNKT cells co-cultured for 24 hours with fresh human PBMC at a 1/10 ratio. For the intracellular detection of IFNγ, Brefeldin A was added for the last 4 hours. Representative electronic gating is shown for the discrimination of CFSE-labeled iNKT cells, B cells, T cells, and NK cells to measure IFNγ expression (or CD69 expression, not shown). Filled black histograms show staining with vehicle control and are overlaid with open gray histograms for stimulation with 100 nM of KRN7000. (B) Dose-dependent IFNγ and CD40L expression by iNKT cells (top and middle graph, respectively) and IFNγ production by transactivated NK cells (bottom graph), after 24 h of co-culture of CFSE-labeled iNKT cells and PBMCs at a 1/10 ratios and the indicated concentration of either KRN7000 (black filled circles) or the adamantanoyl (AD) analog (open circles). Data are presented for a CD4^+ clone (HDD3), and similar results (not shown) were obtained with a DN clone (HDE3). (C) Effect of specific blockade of various cytokines and CD40L on the activation of iNKT cells and transactivated NK cells. CFSE-labeled iNKT cells and PBMCs were co-cultured at a 1/40 ratio for the indicated time, in the presence of KRN7000 at 25 nM and 10 µg/mL of isotype matched control or specific blocking antibodies as indicated. Average percentages of IFNγ^+ iNKT cells and NK cells, assessed by intracellular staining at 24, 48 and 66 hours, are indicated in the left and right plots, respectively.
Figure 7 Comparison of αGalCer analogs for their ability to induce NK cell transactivation. (A) iNKT cell clones were co-cultured for 24 hours with fresh human PBMC at a 1/10 ratio with 100 nM of the indicated analogs, and Brefeldin A was added for the last 4 hours. The percentages of IFNγ^+ iNKT cells (open bars) and IFNγ^+ NK cells (filled bars) are indicated. Cytokine levels were assessed by ELISA in supernatants from identical conditions in absence of Brefeldin A treatment: (B) IFNγ levels (open bars) and IL-13 levels (filled bars); the detection limit was 82.3 ng/mL for both cytokines. (C) IL-12 levels (open bars) and IL-18 levels (filled bars); the detection limit was 27.4 ng/mL. Results obtained with a CD4^+ clone (HDD3) are presented, and similar data (not shown) were obtained with a DN clone (HDE3).

One may read the EC50 as the concentration giving half of the maximal effect. Low values mean an effect from little substance, high ones a need for much substance.

T1 sequence (P15813 20-301 limits assumed): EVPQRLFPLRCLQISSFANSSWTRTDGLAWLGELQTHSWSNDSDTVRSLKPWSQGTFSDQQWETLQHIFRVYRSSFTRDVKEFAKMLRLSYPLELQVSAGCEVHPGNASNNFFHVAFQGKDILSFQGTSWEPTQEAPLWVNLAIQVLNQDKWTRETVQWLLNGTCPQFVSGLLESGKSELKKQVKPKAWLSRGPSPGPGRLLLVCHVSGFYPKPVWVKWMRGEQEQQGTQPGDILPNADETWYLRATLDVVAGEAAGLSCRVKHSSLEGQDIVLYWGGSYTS
T1 sequence (P61769 21-119 partner): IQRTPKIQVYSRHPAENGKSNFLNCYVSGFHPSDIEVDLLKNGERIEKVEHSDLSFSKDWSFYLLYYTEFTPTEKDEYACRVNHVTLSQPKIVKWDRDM

With `CCCCCCCCCCCCCC[C@@H](O)[C@@H](O)[C@H](CO[C@H]1O[C@H](CO)[C@H](O)[C@H](O)[C@H]1O)NC(=O)C12CC3CC(CC(C3)C1)C2` [AD], in the assay on human iNKT cell clones, the EC50 was greater than 10 µM. The “lipid excess at which tetramers were efficiently loaded” value (shortened to “lipid excess”) at hCD1d is on record as 25–50 fold. In assay [1], the “IL-12 levels in supernatants” value is recorded as “undetectable”; the “IL-13 levels in supernatants” value is “lower, but still detectable, IL-13 levels”; the “IL-18 levels in supernatants” value is “remained low”; the “global IFNγ production in supernatants” value was “lower global IFNγ production”. The “ability to activate iNKT cells and stimulate NK cell transactivation (IFNγ+ cells)” value (“ability” below) in assay [1] was “lower degree of iNKT cell activation with a limited transactivation of NK cells”. In addition, the “CD40L and IFNγ expression by iNKT cells” value in assay [1] (iNKT/PBMC 1/10, dose range) is “induced with high doses”.
In the assay on human iNKT cell clones, `CCCCCCCCCCCCCC[C@@H](O)[C@@H](O)[C@H](CO[C@H]1O[C@H](CO)[C@H](O)[C@H](O)[C@H]1O)NC(=O)c1cccc(Br)c1` [BB] yielded an EC50 greater than 10 µM. In addition, on hCD1d, the “lipid excess” value was 25–50 fold. In addition, in assay [1], the “IL-12 levels in supernatants” value is reported as “undetectable”; the “IL-13 levels in supernatants” value is on record as “lower, but still detectable, IL-13 levels”; the “IL-18 levels in supernatants” value is recorded as “remained low”; the “global IFNγ production in supernatants” value was “lower global IFNγ production”. Also, the “ability” value in assay [1] is given as “lower degree of iNKT cell activation with a limited transactivation of NK cells”.
Take `CCCCCCCCCCCCCC[C@@H](O)[C@@H](O)[C@H](CO[C@H]1O[C@H](CO)[C@H](O)[C@H](O)[C@H]1O)NC(=O)c1ccc(F)c(F)c1` [DFB]: the EC50 with human iNKT cell clones was greater than 10 µM. On hCD1d, the “binding to hCD1d” value is “weak binding to hCD1d” and the “lipid excess” value was “much higher lipid excess was necessary”. In assay [1], the “IL-12 levels in supernatants” value is given as “undetectable”; the “IL-13 levels in supernatants” value is “lower, but still detectable, IL-13 levels”; the “IL-18 levels in supernatants” value was “remained low”; the “global IFNγ production in supernatants” value is reported as “lower global IFNγ production”. Further, the “ability” value in assay [1] was “lower degree of iNKT cell activation with a limited transactivation of NK cells”.
For `CCCCCCCCCCCCCC[C@@H](O)[C@@H](O)[C@H](CO[C@H]1O[C@H](CO)[C@H](O)[C@H](O)[C@H]1O)NC(=O)c1ccc(C)cc1` [Tol], in the assay with human iNKT cell clones (dose range, IFNγ, IL-4, IL-13, clones HDD3, HDD11, HDE3, HDA7), the “iNKT cell clone cytokine response / agonist activity” value is “substantially lower iNKT cell response”. The “lipid excess” value on hCD1d is on record as 25–50 fold. Moreover, in assay [1], the “IL-12 levels in supernatants” value is “detectable IL-12 generation”, the “IL-13 levels in supernatants” value is given as “high IL-13 levels”, the “IL-18 levels in supernatants” value is “enhanced IL-18 levels compared to vehicle control” and the “global IFNγ production in supernatants” value is “high global production of IFNγ”.
